Results: ChEMBL document CHEMBL3727348, “3-(aryl or heteroaryl) methyleneindolin-2-one derivatives as inhibitors of cancer stem cell pathway kinases for the treatment of cancer” (2014)
Active and inactive are the calls of the source. No cut-off for these calls is given here.

biological target: Mitogen-activated protein kinase; ERK1/ERK2 (Homo sapiens) (UniProt P27361+P28482); assay: Inhibition of ERK phosphorylation in cells (unknown origin) incubated for 6 hrs by Western blot based cell based method; conditions: not given
Sequence (P27361 whole entry, looked up): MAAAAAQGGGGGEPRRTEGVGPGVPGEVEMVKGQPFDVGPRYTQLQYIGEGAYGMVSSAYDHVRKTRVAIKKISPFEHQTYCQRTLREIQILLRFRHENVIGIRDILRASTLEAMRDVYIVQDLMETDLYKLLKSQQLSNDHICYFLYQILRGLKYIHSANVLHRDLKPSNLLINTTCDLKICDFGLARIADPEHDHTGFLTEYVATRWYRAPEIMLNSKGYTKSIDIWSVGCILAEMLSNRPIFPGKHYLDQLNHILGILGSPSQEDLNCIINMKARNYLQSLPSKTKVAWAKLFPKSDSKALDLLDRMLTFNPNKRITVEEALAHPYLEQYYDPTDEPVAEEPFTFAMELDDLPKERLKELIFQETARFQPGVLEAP
Sequence (P28482 whole entry, looked up): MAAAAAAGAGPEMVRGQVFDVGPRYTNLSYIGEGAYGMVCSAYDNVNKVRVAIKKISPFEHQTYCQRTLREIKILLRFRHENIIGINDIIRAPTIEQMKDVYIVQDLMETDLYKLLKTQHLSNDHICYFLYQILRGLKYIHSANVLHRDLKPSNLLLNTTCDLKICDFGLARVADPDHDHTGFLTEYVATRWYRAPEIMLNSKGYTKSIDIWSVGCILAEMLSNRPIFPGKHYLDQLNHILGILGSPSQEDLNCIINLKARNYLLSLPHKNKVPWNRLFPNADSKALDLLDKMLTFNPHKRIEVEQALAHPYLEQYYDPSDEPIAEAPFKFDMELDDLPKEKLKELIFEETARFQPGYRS

| inhibition | Structure (SMILES) |
| --- | --- |
| Active | CCNC(=O)c1c(C)[nH]c(/C=C2\C(=O)Nc3ccc(-c4csc(-c5ccccc5)n4)cc32)c1C |
| Active | CCOC(=O)CCc1ccc(-c2nc(-c3ccc4c(c3)/C(=C/c3[nH]c(C)c(C(=O)NCCN(CC)CC)c3C)C(=O)N4)cs2)cc1 |
| Active | Cc1cc(C)c(/C=C2\C(=O)Nc3ccc(-c4ccc(C=O)cc4)cc32)[nH]1 |

biological target: Ribosomal protein S6 kinase (Homo sapiens) (UniProt P51812+Q9UBS0+O75676+Q15349+O75582+P23443+Q9UK32+Q15418); assay: Inhibition of RPS6 kinase phosphorylation in cells (unknown origin) incubated for 6 hrs by Western blot based cell based method; conditions: not given

| inhibition | Structure (SMILES) |
| --- | --- |
| Active | CCNC(=O)c1c(C)[nH]c(/C=C2\C(=O)Nc3ccc(-c4csc(-c5ccccc5)n4)cc32)c1C |
| Active | Cc1[nH]c(/C=C2\C(=O)Nc3ccc(-c4csc(-c5ccccc5)n4)cc32)c(C)c1C(=O)NCCO |

tested on: FaDu; assay: Cytotoxic activity against human FADU bulk cells incubated for 72 hrs by Cell-titer-Glo luminescence assay; type: functional, cell-based; conditions: not given

| Structure (SMILES) | IC50 [µM] |
| --- | --- |
| CCN(CC)CCNC(=O)c1c(C)[nH]c(/C=C2\C(=O)Nc3ccc(-c4cnn(-c5ccccn5)c4)cc32)c1C | 0.51 |
| CCN(CC)CCNC(=O)c1c(C)[nH]c(/C=C2\C(=O)Nc3ccc(-c4cnn(C5CCOCC5)c4)cc32)c1C | 4.22 |
| CCN(CC)CCNC(=O)c1c(C)[nH]c(/C=C2\C(=O)Nc3ccc(-c4ncc(-c5ccccc5)o4)cc32)c1C | 7.35 |
| Cc1cc(C)c(/C=C2\C(=O)Nc3ccc(-c4ccc(C=O)cc4)cc32)[nH]1 | 26.8 |
| CCN(CC)CCNC(=O)c1c(C)[nH]c(/C=C2\C(=O)Nc3ccc(-c4cnn(-c5ccccc5)c4)cc32)c1C | 6.25 |
| CCN(CC)CCNC(=O)c1c(C)[nH]c(/C=C2\C(=O)Nc3ccc(-c4cnn(-c5ccccc5)c4C)cc32)c1C | 2.84 |

tested on: A549; assay: Cytotoxic activity against human A549 bulk cells incubated for 72 hrs by Cell-titer-Glo luminescence assay; type: functional, cell-based; conditions: A549, 72 h

| Structure (SMILES) | IC50 [µM] |
| --- | --- |
| CCN(CC)CCNC(=O)c1c(C)[nH]c(/C=C2\C(=O)Nc3ccc(-c4cnn(-c5ccccn5)c4)cc32)c1C | 1.72 |
| CCN(CC)CCNC(=O)c1c(C)[nH]c(/C=C2\C(=O)Nc3ccc(-c4cnn(C5CCOCC5)c4)cc32)c1C | 16 |
| Cc1cc(C)c(/C=C2\C(=O)Nc3ccc(-c4ccc(C=O)cc4)cc32)[nH]1 | 29.2 |
| CCN(CC)CCNC(=O)c1c(C)[nH]c(/C=C2\C(=O)Nc3ccc(-c4cnn(-c5ccccc5)c4)cc32)c1C | 5.35 |
| CCN(CC)CCNC(=O)c1c(C)[nH]c(/C=C2\C(=O)Nc3ccc(-c4cnn(-c5ccccc5)c4C)cc32)c1C | 29.2 |

tested on: ACHN; assay: Cytotoxic activity against human ACHN bulk cells incubated for 72 hrs by Cell-titer-Glo luminescence assay; type: functional, cell-based; conditions: not given

| Structure (SMILES) | IC50 [µM] |
| --- | --- |
| CCN(CC)CCNC(=O)c1c(C)[nH]c(/C=C2\C(=O)Nc3ccc(-c4cnn(-c5ccccn5)c4)cc32)c1C | 1.24 |
| CCN(CC)CCNC(=O)c1c(C)[nH]c(/C=C2\C(=O)Nc3ccc(-c4cnn(C5CCOCC5)c4)cc32)c1C | 10.4 |
| CCN(CC)CCNC(=O)c1c(C)[nH]c(/C=C2\C(=O)Nc3ccc(-c4cnn(-c5ccccc5)c4)cc32)c1C | 2.28 |
| CCN(CC)CCNC(=O)c1c(C)[nH]c(/C=C2\C(=O)Nc3ccc(-c4cnn(-c5ccccc5)c4C)cc32)c1C | 3.54 |

tested on: FaDu; assay: Cytotoxic activity against human FADU cancer stem cells incubated for 72 hrs by Cell-titer-Glo luminescence assay; type: functional, cell-based; conditions: not given

| Structure (SMILES) | IC50 [µM] |
| --- | --- |
| CCN(CC)CCNC(=O)c1c(C)[nH]c(/C=C2\C(=O)Nc3ccc(-c4cnn(-c5ccccn5)c4)cc32)c1C | 0.05 |
| CCN(CC)CCNC(=O)c1c(C)[nH]c(/C=C2\C(=O)Nc3ccc(-c4cnn(C5CCOCC5)c4)cc32)c1C | 2.57 |
| CCOC(=O)CCc1ccc(-c2nc(-c3ccc4c(c3)/C(=C/c3[nH]c(C)c(C(=O)NCCN(CC)CC)c3C)C(=O)N4)cs2)cc1 | 2.52 |
| CCN(CC)CCNC(=O)c1c(C)[nH]c(/C=C2\C(=O)Nc3ccc(-c4ncc(-c5ccccc5)o4)cc32)c1C | 27.6 |
| CCN(CC)CCNC(=O)c1c(C)[nH]c(/C=C2\C(=O)Nc3ccc(-c4cnn(-c5ccccc5)c4)cc32)c1C | 0.6 |
| CCN(CC)CCNC(=O)c1c(C)[nH]c(/C=C2\C(=O)Nc3ccc(-c4cnn(-c5ccccc5)c4C)cc32)c1C | 1.31 |

tested on: A549; assay: Cytotoxic activity against human A549 cancer stem cells incubated for 72 hrs by Cell-titer-Glo luminescence assay; type: functional, cell-based; conditions: A549, 72 h

| Structure (SMILES) | IC50 [µM] |
| --- | --- |
| CCN(CC)CCNC(=O)c1c(C)[nH]c(/C=C2\C(=O)Nc3ccc(-c4cnn(-c5ccccn5)c4)cc32)c1C | 2.53 |
| CCN(CC)CCNC(=O)c1c(C)[nH]c(/C=C2\C(=O)Nc3ccc(-c4ncc(-c5ccccc5)o4)cc32)c1C | 0.35 |
| CCN(CC)CCNC(=O)c1c(C)[nH]c(/C=C2\C(=O)Nc3ccc(-c4cnn(-c5ccccc5)c4)cc32)c1C | 4.83 |
| CCN(CC)CCNC(=O)c1c(C)[nH]c(/C=C2\C(=O)Nc3ccc(-c4cnn(-c5ccccc5)c4C)cc32)c1C | 4.9 |

tested on: ACHN; assay: Cytotoxic activity against human ACHN cancer stem cells incubated for 72 hrs by Cell-titer-Glo luminescence assay; type: functional, cell-based; conditions: not given

| Structure (SMILES) | IC50 [µM] |
| --- | --- |
| CCN(CC)CCNC(=O)c1c(C)[nH]c(/C=C2\C(=O)Nc3ccc(-c4cnn(-c5ccccn5)c4)cc32)c1C | 0.13 |

biological target: Serine/threonine-protein kinase RIO2 (Homo sapiens) (UniProt Q9BVS4); assay: Inhibition of N-terminal GST-fused full length human recombinant RIOK2 expressed in baculovirus Sf21 cells assessed as reduction in kinase auto-phosphorylation at 1 uM in presence of ATP incubated for 1 hr by ELISA method; conditions: not given
Sequence (Q9BVS4 whole entry, looked up, the tested form may be a part): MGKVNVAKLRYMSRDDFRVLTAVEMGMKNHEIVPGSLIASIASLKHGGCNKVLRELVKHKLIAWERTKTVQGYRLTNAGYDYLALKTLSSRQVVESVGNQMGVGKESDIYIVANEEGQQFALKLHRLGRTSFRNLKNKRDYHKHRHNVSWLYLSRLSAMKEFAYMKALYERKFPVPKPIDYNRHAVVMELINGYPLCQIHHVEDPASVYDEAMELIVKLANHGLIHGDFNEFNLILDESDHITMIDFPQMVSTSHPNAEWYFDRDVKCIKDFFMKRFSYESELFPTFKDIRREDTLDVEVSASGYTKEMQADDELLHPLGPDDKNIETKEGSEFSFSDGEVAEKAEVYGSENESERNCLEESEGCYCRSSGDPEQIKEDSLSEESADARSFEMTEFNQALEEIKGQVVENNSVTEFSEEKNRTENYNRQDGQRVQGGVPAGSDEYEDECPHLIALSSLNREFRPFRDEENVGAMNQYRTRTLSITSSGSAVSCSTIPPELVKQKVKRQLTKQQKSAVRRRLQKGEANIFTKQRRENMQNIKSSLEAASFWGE

| inhibition [%] | Structure (SMILES) |
| --- | --- |
| 36 | CCN(CC)CCNC(=O)c1c(C)[nH]c(/C=C2\C(=O)Nc3ccc(-c4cnn(-c5ccccn5)c4)cc32)c1C |
| 32 | CCN(CC)CCNC(=O)c1c(C)[nH]c(/C=C2\C(=O)Nc3ccc(-c4cnn(C5CCOCC5)c4)cc32)c1C |
| 32 | CCN(CC)CCNC(=O)c1c(C)[nH]c(/C=C2\C(=O)Nc3ccc(-c4ncc(-c5ccccc5)o4)cc32)c1C |
| 45 | CCN(CC)CCNC(=O)c1c(C)[nH]c(/C=C2\C(=O)Nc3ccc(-c4cnn(-c5ccccc5)c4)cc32)c1C |
| 55 | CCN(CC)CCNC(=O)c1c(C)[nH]c(/C=C2\C(=O)Nc3ccc(-c4cnn(-c5ccccc5)c4C)cc32)c1C |

biological target: Serine/threonine-protein kinase RIO2 (Homo sapiens) (UniProt Q9BVS4); assay: Inhibition of N-terminal GST-fused full length human recombinant RIOK2 expressed in baculovirus Sf21 cells assessed as reduction in kinase auto-phosphorylation at 10 uM in presence of ATP incubated for 1 hr by ELISA method; conditions: not given

| inhibition [%] | Structure (SMILES) |
| --- | --- |
| 86 | CCN(CC)CCNC(=O)c1c(C)[nH]c(/C=C2\C(=O)Nc3ccc(-c4cnn(-c5ccccn5)c4)cc32)c1C |
| 68 | CCN(CC)CCNC(=O)c1c(C)[nH]c(/C=C2\C(=O)Nc3ccc(-c4cnn(C5CCOCC5)c4)cc32)c1C |
| 56 | CCN(CC)CCNC(=O)c1c(C)[nH]c(/C=C2\C(=O)Nc3ccc(-c4ncc(-c5ccccc5)o4)cc32)c1C |
| 94 | CCN(CC)CCNC(=O)c1c(C)[nH]c(/C=C2\C(=O)Nc3ccc(-c4cnn(-c5ccccc5)c4)cc32)c1C |
| 76 | CCN(CC)CCNC(=O)c1c(C)[nH]c(/C=C2\C(=O)Nc3ccc(-c4cnn(-c5ccccc5)c4C)cc32)c1C |
